This passage reports IC50 results from patent publication US7709465B2, “Phosphorous containing compounds including triphenylmethylphosphonate esters for the treatment of melanoma and other cancers” (The Board of Trustees of the University of Illinois, priority 2006, dated 2010).

Assay type in all cases: cell-based
The test system of experiment [1] is B16-F10. The experiment can be described thus: High-throughput cell death assay I, B16-F10. To be noted: B16-F10, melanoma (mouse); read-out: diethyl TPMP IC50. An excerpt:
(§1) Compound CX5 was further tested using the same high-throughput cell death assay I for activity in inducing death in multiple cell lines representing a variety of cancer types.

The subject of experiment [2] is MDA-MB-231. The experiment is described as follows: High-throughput cell death assay I, MDA-MB-231. The following applies: Homo sapiens, read-out: diethyl TPMP IC50.
Excerpt: as §1

Experiment [3] relates to SK-MEL-5. The experiment is described as follows: High-throughput cell death assay I, SK-MEL-5. To be noted: SK-MEL-5, melanoma (human); read-out: diethyl TPMP IC50.
Excerpt: as §1

In experiment [4] the test system is CRL-1782. The experiment is described as follows: High-throughput cell death assay I, CRL-1782. To be noted: CRL-1782, melanoma (human); read-out: diethyl TPMP IC50.
Excerpt: as §1

In experiment [5] the test system is U-937. The experiment can be described thus: High-throughput cell death assay I, U-937. The following applies: U-937, lymphoma (human); read-out: diethyl TPMP IC50.
Excerpt: (§2) According to the American Type Culture Collection (ATCC), U-937 is a human cell line of histiocytic lymphoma tissue with monocyte morphology. See Sundstrom C, Nilsson K, Int. J. Cancer 17: 565-577, 1976. Also according to ATCC, HL-60 is a human cell line of a tissue type described as peripheral blood, promyeloblast, and acute promyelocytic leukemia, with myeloblastic morphology. See Gallagher R, et al., Blood 54: 713-733, 1979.
as §1

Experiment [6] concerns HL-60. The experiment can be described thus: High-throughput cell death assay I, HL-60. To be noted: HL-60, leukemia (human); read-out: diethyl TPMP IC50.
Excerpt: as §2, §1

The subject of experiment [7] is K562. The experiment is described as follows: High-throughput cell death assay I, K562. The following applies: K562, leukemia (CML, human); read-out: diethyl TPMP IC50.
Excerpt: as §1

The subject of experiment [8] is NCI-H226. The experiment can be described thus: High-throughput cell death assay I, NCI-H226. The following applies: NCI-H226, lung (human); read-out: diethyl TPMP IC50.
Excerpt: as §1

The test system of experiment [9] is Hs578t. The experiment can be described thus: High-throughput cell death assay I, Hs578t. The following applies: Hs-578T, breast (human), read-out: diethyl TPMP IC50.
Excerpt: as §1

For experiment [10], the system named is ACHN. The experiment can be described thus: High-throughput cell death assay I, ACHN. To be noted: renal (human), read-out: diethyl TPMP IC50.
Excerpt: as §1

The test system of experiment [11] is SK-N-SH. The experiment is described as follows: High-throughput cell death assay I, SK-N-SH. To be noted: neuroblastoma (human), read-out: diethyl TPMP IC50.
Excerpt: as §1

The term IC50 denotes the concentration at which inhibition is half-maximal. As for `CCOP(=O)(OCC)C(c1ccccc1)(c1ccccc1)c1ccccc1` [CX5], the IC50 in [1] turned out to be 0.81 µM; in [2], 1.09 µM; in [3] it was 3.39 µM; in [4], 1.41 µM; in experiment [5] it was 11.6 µM; in experiment [6] it was 13.2 µM. Moreover, the IC50 was determined as 3.27 µM in [7]; 6.56 µM in [8]; 13.2 µM in [9]; 9.69 µM in experiment [10]; 1.8 µM in experiment [11].
